Data published in US20230143612A1 (Arbutus Biopharma Corporation, priority 2020, published 2023).

Target: PD-L1 His protein / PD-1 Fc protein (Homo sapiens, UniProt Q9NZQ7)
Experiment: HTRF Assay (PD-1/PD-L1 interaction)
Assay type: binding
Conditions: PD-L1 His 6 nM, PD-1 Fc 6 nM
Procedure, shortened: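 HTRF: PD-L1 His (6 nM final), compound (3-fold dilutions, 20 μM to 0.001 μM final) and PD-1 Fc (6 nM final) preincubated 15 min at room temperature. Anti-human IgG-XL665 and anti-6HIS Tb cryptate (mixed at 6.7 nM and 0.35 nM) then added for 1 h at room temperature before reading.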

PD-L1 His protein / PD-1 Fc protein, sequence (Q9NZQ7 19-238 limits assumed): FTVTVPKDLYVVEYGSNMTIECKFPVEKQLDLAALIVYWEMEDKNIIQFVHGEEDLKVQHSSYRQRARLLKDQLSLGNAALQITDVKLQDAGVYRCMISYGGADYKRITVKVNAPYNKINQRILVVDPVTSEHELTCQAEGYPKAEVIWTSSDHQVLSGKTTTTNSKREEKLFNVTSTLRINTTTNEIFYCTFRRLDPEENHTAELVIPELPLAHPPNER

Row | SMILES | IC50
1 | COc1nc(-c2cccc(-c3cccc(-c4cnc5c(CNC[C@@H]6CCC(=O)N6)cn(C)c5c4)c3Cl)c2Cl)ccc1CNC[C@@H]1CCC(=O)N1 [Example 375, (S)-5-((((6-(2,2′-Dichloro-3′-(1-methyl-3-(((((S)-5-oxopyrrolidin-2-yl)methyl)amino)methyl)-1H-pyrrolo[3,2-b]pyridin-6-yl)-[1,1′-biphenyl]-3-yl)-2-methoxypyridin-3-yl)methyl)amino)methyl)pyrrolidin-2-one] | 180 nM
2 | COc1nc(-c2cccc(-c3cccc(-c4ccn5c(=O)cc(CN[C@H]6C[C@](C)(O)C6)nc5c4)c3Cl)c2Cl)ccc1CNC[C@@H]1CCC(=O)N1 [Example 376, 8-(2,2′-Dichloro-3′-(6-methoxy-5-(((((S)-5-oxopyrrolidin-2-yl)methyl)amino)methyl)pyridin-2-yl)-[1,1′-biphenyl]-3-yl)-2-((((1r,3r)-3-hydroxy-3-methylcyclobutyl)amino)methyl)-4H-pyrido[1,2-a]pyrimidin-4-one] | 0.7 nM
3 | COc1nc(-c2cccc(-c3cccc(-c4ccn5c(=O)c(C)c(CNC[C@H](C)O)nc5c4)c3Cl)c2Cl)ccc1CNC[C@@H]1CCC(=O)N1 [Example 377, 8-(2,2′-Dichloro-3′-(6-methoxy-5-(((((S)-5-oxopyrrolidin-2-yl)methyl)amino)methyl)pyridin-2-yl)-[1,1′-biphenyl]-3-yl)-2-((((S)-2-hydroxypropyl)amino)methyl)-3-methyl-4H-pyrido[1,2-a]pyrimidin-4-one] | 21 nM
4 | COc1nc(-c2cccc(-c3cccc(-c4ccn5c(=O)c(CNCCO)cnc5c4)c3Cl)c2Cl)cc(Cl)c1CNC[C@@H]1CCC(=O)N1 [Example 378, (S)-8-(2,2′-Dichloro-3′-(4-chloro-6-methoxy-5-((((5-oxopyrrolidin-2-yl)methyl)amino)methyl)pyridin-2-yl)-[1,1′-biphenyl]-3-yl)-3-(((2-hydroxyethyl)amino)methyl)-4H-pyrido[1,2-a]pyrimidin-4-one] | 110 nM
5 | COc1nc(-c2cccc(-c3cccc(-c4cnc5c(CNC[C@@H]6CCC(=O)N6)c(OC)nn5c4)c3Cl)c2Cl)ccc1CNC[C@@H]1CCC(=O)N1 [Example 379, (S)-5-((((6-(2,2′-Dichloro-3′-(2-methoxy-3-(((((S)-5-oxopyrrolidin-2-yl)methyl)amino)methyl)pyrazolo[1,5-a]pyrimidin-6-yl)-[1,1′-biphenyl]-3-yl)-2-methoxypyridin-3-yl)methyl)amino)methyl)pyrrolidin-2-one] | 5.6 nM
6 | COc1nc(-c2cccc(-c3cccc(-c4ccn5c(CNC[C@@H]6CCC(=O)N6)cnc5c4)c3Cl)c2Cl)ccc1CNC[C@@H]1CCC(=O)N1 [Example 380] | 24 nM
7 | O=C1CC[C@@H](CNCc2cnc3cc(-c4cccc(-c5cccc(-c6cnc7c(CNC[C@@H]8CCC(=O)N8)cnn7c6)c5Cl)c4Cl)ccn3c2=O)N1 [Example 381, 8-(2,2′-dichloro-3′-(3-(((((S)-5-oxopyrrolidin-2-yl)methyl)amino)methyl)pyrazolo[1,5-a]pyrimidin-6-yl)-[1,1′-biphenyl]-3-yl)-3-(((((S)-5-oxopyrrolidin-2-yl)methyl)amino)methyl)-4H-pyrido[1,2-a]pyrimidin-4-one] | 5.9 nM
8 | COc1nc(-c2cccc(-c3cccc(-c4ccn5c(Cl)c(CNC[C@@H]6CCC(=O)N6)nc5c4)c3Cl)c2Cl)ccc1CNC[C@@H]1CCC(=O)N1 [Example 382, (5S)-5-[[[6-[2-chloro-3-[2-chloro-3-[3-chloro-2-[[[(2S)-5-oxopyrrolidin-2-yl]methylamino]methyl]imidazo[1,2-a]pyridin-7-yl]phenyl]phenyl]-2-methoxy-3-pyridyl]methylamino]methyl]pyrrolidin-2-one] | 110 nM
9 | COc1nc(-c2cccc(-c3cccc(-c4ccn5c(Cl)c(CNCCO)nc5c4)c3Cl)c2Cl)ccc1CNCCO [Example 383, 2-[[6-[2-Chloro-3-[2-chloro-3-[3-chloro-2-[(2-hydroxyethylamino)methyl]imidazo[1,2-a]pyridin-7-yl]phenyl]phenyl]-2-methoxy-3-pyridyl]methylamino]etanol] | 40 nM
10 | COC(=O)C(C)(C)CNCc1cnc2cc(-c3cccc(-c4cccc(-c5ccc(CNC[C@@H]6CCC(=O)N6)c(OC)n5)c4Cl)c3Cl)ccn2c1=O [Example 384, methyl (S)-3-(((8-(2,2′-dichloro-3′-(6-methoxy-5-((((5-oxopyrrolidin-2-yl)-methyl)-amino)-methyl)-pyridin-2-yl)-[1,1′-biphenyl]-3-yl)-4-oxo-4H-pyrido[1,2-a]pyrimidin-3-yl)-methyl)-amino)-2,2-dimethylpropanoate] | 2.7 nM
11 | COc1nc(-c2cccc(-c3cccc(-c4ccc5[nH]c(CNC[C@@H]6CCC(=O)N6)c(Cl)c5n4)c3Cl)c2Cl)ccc1CNC[C@@H]1CCC(=O)N1 [Example 385, (S)-5-((((3-Chloro-5-(2,2′-dichloro-3′-(6-methoxy-5-(((((S)-5-oxopyrrolidin-2-yl)methyl)-amino)methyl)-pyridin-2-yl)-[1,1′-biphenyl]-3-yl)-1H-pyrrolo[3,2-b]-pyridin-2-yl)methyl)-amino)methyl)-pyrrolidin-2-one] | 13 nM
12 | COc1nc(-c2cccc(-c3cccc(-c4ccc5c(Cl)c(CNC[C@@H]6CCC(=O)N6)[nH]c5n4)c3Cl)c2Cl)ccc1CNC[C@@H]1CCC(=O)N1 [Example 386, (S)-5-((((3-Chloro-6-(2,2′-dichloro-3′-(6-methoxy-5-(((((S)-5-oxopyrrolidin-2-yl)methyl)-amino)methyl)-pyridin-2-yl)-[1,1′-biphenyl]-3-yl)-1H-pyrrolo[2,3-b]-pyridin-2-yl)methyl)-amino)methyl)-pyrrolidin-2-one] | 28 nM
13 | COc1nc(-c2cccc(-c3cccc(N4Cc5cc(CNC[C@@H]6CCC(=O)N6)ccc5C4=O)c3Cl)c2Cl)ccc1CNC[C@@H]1CCC(=O)N1 [Example 387, 2-(2,2′-Dichloro-3′-(6-methoxy-5-(((((S)-5-oxopyrrolidin-2-yl)methyl)amino)methyl)pyridin-2-yl)-[1,1′-biphenyl]-3-yl)-5-(((((S)-5-oxopyrrolidin-2-yl)methyl)amino)methyl)isoindolin-1-one] | 0.1 nM
14 | COc1nc(-c2cccc(-c3cccc(-c4ccc5c(CNC[C@@H]6CCC(=O)N6)cn(C)c5n4)c3Cl)c2Cl)ccc1CNC[C@@H]1CCC(=O)N1 [Example 388, (5S)-5-[[[6-[2-Chloro-3-[2-chloro-3-[1-methyl-3-[[[(2S)-5-oxopyrrolidin-2-yl]methylamino]methyl]pyrrolo[2,3-b]pyridin-6-yl]phenyl]phenyl]-2-methoxy-3-pyridyl]methylamino]methyl]pyrrolidin-2-one] | 610 nM
15 | COc1nc(-c2cccc(-c3cccc(-c4ccc5ncc(CNC[C@@H]6CCC(=O)N6)n5c4)c3Cl)c2Cl)ccc1CNC[C@@H]1CCC(=O)N1 [Example 389, (5S)-5-[[[6-[2-Chloro-3-[2-chloro-3-[3-[[[(2S)-5-oxopyrrolidin-2-yl]methylamino]methyl]imidazo[1,2-a]pyridin-6-yl]phenyl]phenyl]-2-methoxy-3-pyridyl]methylamino]methyl]pyrrolidin-2-one] | 40 nM
16 | COc1nc(-c2cccc(-c3cccc(-c4ccc5nn(CCCN6C(=O)c7ccccc7C6=O)c(=O)n5c4)c3Cl)c2Cl)ccc1CNC[C@@H]1CCC(=O)N1 [Example 391, (S)-2-(3-(6-(2,2′-Dichloro-3′-(6-methoxy-5-((((5-oxopyrrolidin-2-yl)methyl)amino)methyl)pyridin-2-yl)-[1,1′-biphenyl]-3-yl)-3-oxo-[1,2,4]triazolo[4,3-a]pyridin-2(3H)-yl)propyl)isoindoline-1,3-dione] | 65 nM
17 | COc1nc(-c2cccc(-c3cccc(-c4ccc5nn(CCCN(CC(C)C)CC(C)C)c(=O)n5c4)c3Cl)c2Cl)ccc1CNC[C@@H]1CCC(=O)N1 [Example 392, (S)-6-(2,2′-Dichloro-3′-(6-methoxy-5-((((5-oxopyrrolidin-2-yl)methyl)-amino)-methyl)pyridin-2-yl)-[1,1′-biphenyl]-3-yl)-2-(3-(diisobutylamino)propyl)-[1,2,4]triazolo[4,3-a]pyridin-3(2H)-one] | 6.7 nM
18 | COc1nc(-c2cccc(-c3cccc(-c4ccn5c(=O)c(CN[C@H]6C[C@](C)(O)C6)cnc5c4)c3Cl)c2Cl)cc(Cl)c1CNC[C@@H]1CCC(=O)N1 [Example 393, 8-(2,2′-Dichloro-3′-(4-chloro-6-methoxy-5-(((((S)-5-oxopyrrolidin-2-yl)methyl)amino)methyl)pyridin-2-yl)-[1,1′-biphenyl]-3-yl)-3-((((1r,3r)-3-hydroxy-3-methylcyclobutyl)amino)methyl)-4H-pyrido[1,2-a]pyrimidin-4-one] | 62 nM
19 | COc1cc(-c2cccc(-c3cccc(-c4cc5c(c(OC)c4)CN(C[C@@H]4CCC(=O)N4)CC5)c3Cl)c2Cl)cc2c1CN(C[C@@H]1CCC(=O)N1)CC2 [Example 394, (5S,5'S)-5,5′-((6,6′-(2,2′-Dichloro-[1,1′-biphenyl]-3,3′-diyl)bis(8-methoxy-3,4-dihydroisoquinoline-6,2(1H)-diyl))bis(methylene))bis(pyrrolidin-2-one)] | 71 nM
20 | COc1nc(-c2cccc(-c3cccc(-c4cc5c(=O)n(C)c(CN(C)CCO)nn5c4)c3Cl)c2Cl)ccc1CNC[C@@H]1CCC(=O)N1 [Example 395, (S)-6-(2,2′-Dichloro-3′-(6-methoxy-5-((((5-oxopyrrolidin-2-yl)methyl)amino)methyl)pyridin-2-yl)-[1,1′-biphenyl]-3-yl)-2-(((2-hydroxyethyl)(methyl)amino)methyl)-3-methylpyrrolo[2,1-f][1,2,4]triazin-4(3H)-one] | 6.7 nM
21 | COc1nc(-c2cccc(-c3cccc(-c4ccn5c(=O)c6c(nc5c4)OCCNC6)c3Cl)c2Cl)ccc1CNC[C@@H]1CCC(=O)N1 [Example 396, (S)-10-(2,2′-Dichloro-3′-(6-methoxy-5-((((5-oxopyrrolidin-2-yl)methyl)amino)methyl)pyridin-2-yl)-[1,1′-biphenyl]-3-yl)-4,5-dihydro-2H-pyrido[1′,2′:1,2]pyrimido[5,4-f][1,4]oxazepin-6(3H)-one] | 15 nM
